Reference: patent US5866576A, “Epoxide-containing compounds” (Cell Therapeutics, Inc., priority 1997, dated 1999)
Where two headings read alike, the source gives them in different places.

Experiments:
lymphocytes = assay: mixed lymphocyte reaction (MLR), human lymphocytes (FIG. 12); assay type: cell-based
Experimental: This example illustrates an inhibitive effect of compound no. 1206 in a mixed lymphocyte reaction (MLR). This MNR is used to screen potentially immunosuppressive drugs. Lymphocytes (2×10^5) from normal human donors are grown for 6 days in the presence and absence (control) of inventive compound no. 1206. Tritiated thymidine is added and the lymphocytes grown for a final 6 hours. Incorporation of the tritiated thymidine occurs when the cells are in cell cycle. […] An experimentally determined IC50 value for compound no. 1206 is 70 μM.

[1] = system: LPS-induced TNF release in whole human blood; assay: LPS-induced TNF release in whole human blood (FIG. 14); assay type: cell-based; conditions: LPS 10 ng/ml, read-out: inhibition of TNF-α induction
Experimental: This example illustrates inhibitive effects of the inventive compounds on LPS-induced TNF release. Data collected is reported as percent inhibition of LPS induced TNF release in whole human blood as compared with control values of TNF release.
In this assay, whole blood was collected from a healthy human donor into Vacutainer tubes containing ACD citrate anti-coagulant. Compounds to be tested were diluted in RPMI medium and added (5 μl) to tubes containing whole blood (225 μl). The tubes were mixed and incubated for a maximum of 1 hour at 37° C. LPS Salmonella abortus equi was diluted in RPMI and added to samples at 20 μl per tube (10 ng/ml final concentration). The prepared tubes were mixed and incubated for 4-6 hours at 37° C. The reaction was terminated by adding 750 μl of RPMI to each tube, then centrifuged to remove cells. Supernatants are collected and stored overnight at 4° C. Supernatant samples are assayed for TNF release using commercial immunoassay kits.

[2] = system: normal human bone marrow stromal cells (MSC); assay: human bone marrow stromal cell (MSC) proliferation in response to PDGF BB and IL-1α; assay type: cell-based; conditions: Table III, PDGF BB 50 ng/ml and IL-1α 10 ng/ml
Experimental: This example illustrates the effects of inventive compounds nos. 1114, 1413, 1560, 1565, 1594, 2518, 2548R, 2548S and 3503 as effective inhibitors of normal human bone marrow stromal cells (MSC) proliferation in response to Platelet Derived Growth Factor BB (PDGF B) and IL-1α (50 and 10 ng/ml, respectively).
MSC were obtained and malintained in exponential growth, released from a growth plate with trypsin and plated into 96 well tissue culture plates in the presence of Fibroblast Growth Factor (FGFβ) for 48 hours. Growth media were removed and the cells were washed once with serum free media. The cells were then incubated 20-24 hours in serum free media.
After incubation, inventive compounds were added to the cells at the appropriate concentration and then the cells again incubated for 1 hour. PDGF B and IL-1α were added to the cells along with 3H-thymidine and the cells again incubated for an additional 24 hours.
After 24 hours of incubation, the cells were then harvested to assess incorporation of ^3 H-thymidine into DNA (proliferation). From each harvested cell culture, an IC-50 for each inventive compound tested was determined. Therefore, a lower reported IC-50 value is indicatilve of greater activity of the invention compounds in inhibiting MSC proliferation. Table III illustrates IC-50 values (in μM) for invention compounds inhibiting MSC proliferation at very low concentrations of compound.

thymocytes = assay: IL-2 (ConA co-stimulated) induced proliferation of thymocytes; assay type: cell-based, mice; conditions: Mus musculus, Thymocyte, 96 h; Table II; ConA 0.25 ug/ml / IL2 20 ng/ml, 4 days
Experimental: This example illustrates the effects of inventive compounds nos. 1105, 1114, 1413, 1439, 1594, 2518, 2548R, 2548S, 2562 and 3503 as effective inhibitors of IL-2 induced proliferation of thymocytes. Single cell suspensions of thymus gland cells obtained from 4-6 week old mice were prepared. Two-hundred thousand cells were plated into individual wells of flat-bottom 96-well plates in RPMI-1640-10% FCS medium. The invention compounds were then added to the wells at varying concentrations and the cells incubated for 1-2 hours at 37° C.
Following this pre-incubation a mixture of Concanavalin A (ConA) and Interleukin-2 (IL2) was added to the experimental wells at a final concentration of (0.25 ug/ml ConA)/(20 ng/ml IL2). Appropriate positive and negative controls were set up on each plate. Each variable was set up in quadruplicate.
The plates were incubated for 4 days at 37° C. in a humidified CO2 incubator. On day 4 the wells were pulsed with 1 μCi of tritiated thymidine(3H-TdR) and the plates incubated for an additional 4 hours. The plates were then harvested and the incorporation of 3H-TdR was determined in a liquid scintillation counter. From the CPM obtained from each experimental well an IC-50 for each inventive compound tested was determined. Therefore, a lower reported IC-50 value is indicative of greater inhibition of IL-2-induced proliferation of thymocytes. Table II illustrates IC-50 values (in μM) for inventive compounds inhibiting proliferation at very low concentrations of compound.

[3] = system: tumor necrosis factor (TNF) levels; conditions: cited from earlier work
[4] = system: PAPH (phosphatidic acid phosphohydrolase); assay: blocking of PAPH in a specific activation pathway; assay type: cell-based; conditions: pathway not involving PI; human mesangial cells, TNF
From the text: The compounds of the invention, include inhibitors of subspecies of LPAAT in PAPH enzymes with substrate specificity for intermediates with 1,2-diunsaturated and 1-alkyl, 2-unsaturated subspecies. One representative example of such an inhibitor (although not within the genus of inventive compounds) is PTX. […] It should be emphasized that the compounds of the invention affect that subset of PAPH and LPAAT that relates to substrates with unsaturated fatty acids other than arachidonate in the sn-2 position, not the housekeeping forms of these enzymes that serve the PI pathway.

[5] = system: polymorphonuclear leukocytes; conditions: cited from earlier work; for chemotaxis in polymorphonuclear leukocytes: in response to a stimulator of chemotaxis
cerebral blood flow = conditions: in vivo; cited from earlier work

Cn1c(=O)c2ccccc2n(CCCCC2CO2)c1=O (centres unmarked) [Compound 1206, 1-(5,6-Oxidohexyl)-3-methylbenzoyleneurea]
IC50 (lymphocytes): 70 µM

Cn1cnc2c1c(=O)n(CCCCCCCCCCC1CO1)c(=O)n2C (centres unmarked) [Compound 2518, 1-(11,12-Oxidodecyl)-3,7-dimethylxanthine]
inhibition at 50 µM [1]: 35%
IC50 [2]: 16.7 µM
IC50 (thymocytes): 3.4 µM

CC(=O)CCCCn1c(=O)c2c(ncn2C)n(C)c1=O [PTX, 1-(5-oxohexyl)-3,7-dimethylxanthine]
TNF levels ([3]; normal volunteers): TNF levels were higher among PTX recipients
TNF levels ([3]; with GM-CSF, patients undergoing allogeneic bone marrow transplant): decrease tumor necrosis factor (TNF) levels
blocking of PAPH [4]: blocks PAPH in a specific activation pathway
activity of certain cytokines to affect chemotaxis [5]: inhibit activity of certain cytokines to affect chemotaxis
chemotaxis in polymorphonuclear leukocytes [5]: stimulate chemotaxis in polymorphonuclear leukocytes

CC(O)CCCCn1c(=O)c2c(ncn2C)n(C)c1=O (centres unmarked) [Compound M1, 1-(5-hydroxyhexyl)-3,7-dimethylxanthine]
chemotaxis in polymorphonuclear leukocytes [5]: stimulate chemotaxis in polymorphonuclear leukocytes
cerebral blood flow (cerebral blood flow): increasing cerebral blood flow
